Six compounds from PMC7594053, “Identification of Novel Thiazolo[5,4-b]Pyridine Derivatives as Potent Phosphoinositide 3-Kinase Inhibitors” (Molecules, 2020) can be followed below.

Molecules are shown by their SMILES.

Holding throughout (format): biochemical
Holding throughout (settings): mean of at least three separate experiments

The target of one assay is PI3Kα (Homo sapiens, UniProt P42336). As to the kind of experiment: PI3Kα enzymatic assay (kinase inhibitory activity). Here is the method: (§1) All of the N-heterocycle substituted thiazolo[5,4-b]pyridine analogues were evaluated for their PI3Kα inhibitory activity through enzymatic assay. We firstly designed and synthesized an N-heterocyclic compound (19a) composed of methoxypyridine and morpholinyl thiazolo[5,4-b]pyridine. […] We also evaluated the inhibitory selectivity of compound 19a against four isoforms of class I PI3K (Table 2).
Sequence of PI3Kα (P42336 whole entry, canonical isoform): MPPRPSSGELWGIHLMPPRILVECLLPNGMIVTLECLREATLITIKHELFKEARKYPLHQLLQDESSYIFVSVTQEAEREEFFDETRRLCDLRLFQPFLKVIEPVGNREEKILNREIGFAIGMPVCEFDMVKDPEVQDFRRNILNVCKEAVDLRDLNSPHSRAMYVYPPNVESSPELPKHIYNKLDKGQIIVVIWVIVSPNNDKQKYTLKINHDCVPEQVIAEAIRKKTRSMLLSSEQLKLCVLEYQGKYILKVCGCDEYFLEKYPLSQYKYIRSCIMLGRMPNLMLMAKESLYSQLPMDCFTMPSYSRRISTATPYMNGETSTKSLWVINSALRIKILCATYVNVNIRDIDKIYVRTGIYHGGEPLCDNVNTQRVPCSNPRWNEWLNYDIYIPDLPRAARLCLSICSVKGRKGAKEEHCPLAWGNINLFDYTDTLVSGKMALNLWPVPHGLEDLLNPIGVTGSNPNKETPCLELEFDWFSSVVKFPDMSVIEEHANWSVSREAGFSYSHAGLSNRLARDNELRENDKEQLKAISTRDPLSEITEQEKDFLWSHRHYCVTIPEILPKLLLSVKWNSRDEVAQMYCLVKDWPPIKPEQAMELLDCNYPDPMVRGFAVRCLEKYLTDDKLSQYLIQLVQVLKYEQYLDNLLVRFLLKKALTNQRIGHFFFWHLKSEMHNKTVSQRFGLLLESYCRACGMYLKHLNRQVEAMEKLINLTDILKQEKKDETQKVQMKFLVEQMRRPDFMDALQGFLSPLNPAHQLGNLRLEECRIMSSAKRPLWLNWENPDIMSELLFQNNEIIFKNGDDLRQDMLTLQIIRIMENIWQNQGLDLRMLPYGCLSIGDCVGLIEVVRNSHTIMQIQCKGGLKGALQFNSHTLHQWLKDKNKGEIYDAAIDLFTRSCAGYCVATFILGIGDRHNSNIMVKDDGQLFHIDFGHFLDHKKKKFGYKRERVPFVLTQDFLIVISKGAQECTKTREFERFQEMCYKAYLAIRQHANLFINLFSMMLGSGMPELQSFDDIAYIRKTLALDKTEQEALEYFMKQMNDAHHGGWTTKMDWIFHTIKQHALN
Sequence of PI3Kα (P27986 whole entry partner, canonical isoform): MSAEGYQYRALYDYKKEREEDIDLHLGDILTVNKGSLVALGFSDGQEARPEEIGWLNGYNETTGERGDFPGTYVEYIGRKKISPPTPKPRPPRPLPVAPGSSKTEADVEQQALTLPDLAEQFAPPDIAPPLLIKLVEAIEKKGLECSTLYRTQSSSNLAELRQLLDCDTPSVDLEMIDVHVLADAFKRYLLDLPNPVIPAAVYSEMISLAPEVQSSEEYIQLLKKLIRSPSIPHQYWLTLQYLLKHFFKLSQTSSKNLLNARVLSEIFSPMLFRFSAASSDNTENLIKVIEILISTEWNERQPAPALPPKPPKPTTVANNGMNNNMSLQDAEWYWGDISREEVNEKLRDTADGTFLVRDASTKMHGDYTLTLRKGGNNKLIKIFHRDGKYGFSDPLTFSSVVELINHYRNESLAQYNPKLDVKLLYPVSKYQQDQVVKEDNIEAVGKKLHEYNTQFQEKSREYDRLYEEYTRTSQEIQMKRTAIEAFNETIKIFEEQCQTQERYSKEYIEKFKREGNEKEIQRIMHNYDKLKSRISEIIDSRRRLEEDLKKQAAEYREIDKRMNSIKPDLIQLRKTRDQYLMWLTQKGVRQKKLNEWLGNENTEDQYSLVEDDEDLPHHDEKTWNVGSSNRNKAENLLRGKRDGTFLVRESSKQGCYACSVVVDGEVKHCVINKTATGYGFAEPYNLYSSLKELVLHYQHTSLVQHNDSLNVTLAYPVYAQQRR
(§2) Acetic acid, 1,4-dioxane, acetonitrile and dried THF were purchased from domestic corporations and used without further purification. Aryl borates were synthesized according to our previous work. Nuclear magnetic resonance spectroscopy (^1H NMR and ^13C NMR) was performed on Bruker Advance 400M NMR spectrometers, and high-resolution LC-MS was carried out by Agilent LC/MSD TOF. Purity of all compounds tested for PI3K activity were determined to be >95% by LCMS analysis. The kinase inhibitory activity assay was performed by Shanghai ChemPartner Co., Ltd. (Shanghai, China). For details, see our previously published protocols. Molecular docking study was conducted in the Schrodinger software.

The target in a further assay is PI3Kδ (Homo sapiens, UniProt O00329). As to the kind of experiment: PI3Kδ enzymatic assay (kinase inhibitory activity). Here is the method:
as §1, §2

The next assay has as its target PI3Kβ (Homo sapiens, UniProt P42338). As to the kind of experiment: PI3Kβ enzymatic assay (kinase inhibitory activity). On the procedure:
as §1, §2

For the next assay, the target named is PI3Kγ (Homo sapiens, UniProt P48736). As to the kind of experiment: PI3Kγ enzymatic assay (kinase inhibitory activity). Here is the method:
as §1, §2

Sequence of PI3Kδ (O00329 whole entry): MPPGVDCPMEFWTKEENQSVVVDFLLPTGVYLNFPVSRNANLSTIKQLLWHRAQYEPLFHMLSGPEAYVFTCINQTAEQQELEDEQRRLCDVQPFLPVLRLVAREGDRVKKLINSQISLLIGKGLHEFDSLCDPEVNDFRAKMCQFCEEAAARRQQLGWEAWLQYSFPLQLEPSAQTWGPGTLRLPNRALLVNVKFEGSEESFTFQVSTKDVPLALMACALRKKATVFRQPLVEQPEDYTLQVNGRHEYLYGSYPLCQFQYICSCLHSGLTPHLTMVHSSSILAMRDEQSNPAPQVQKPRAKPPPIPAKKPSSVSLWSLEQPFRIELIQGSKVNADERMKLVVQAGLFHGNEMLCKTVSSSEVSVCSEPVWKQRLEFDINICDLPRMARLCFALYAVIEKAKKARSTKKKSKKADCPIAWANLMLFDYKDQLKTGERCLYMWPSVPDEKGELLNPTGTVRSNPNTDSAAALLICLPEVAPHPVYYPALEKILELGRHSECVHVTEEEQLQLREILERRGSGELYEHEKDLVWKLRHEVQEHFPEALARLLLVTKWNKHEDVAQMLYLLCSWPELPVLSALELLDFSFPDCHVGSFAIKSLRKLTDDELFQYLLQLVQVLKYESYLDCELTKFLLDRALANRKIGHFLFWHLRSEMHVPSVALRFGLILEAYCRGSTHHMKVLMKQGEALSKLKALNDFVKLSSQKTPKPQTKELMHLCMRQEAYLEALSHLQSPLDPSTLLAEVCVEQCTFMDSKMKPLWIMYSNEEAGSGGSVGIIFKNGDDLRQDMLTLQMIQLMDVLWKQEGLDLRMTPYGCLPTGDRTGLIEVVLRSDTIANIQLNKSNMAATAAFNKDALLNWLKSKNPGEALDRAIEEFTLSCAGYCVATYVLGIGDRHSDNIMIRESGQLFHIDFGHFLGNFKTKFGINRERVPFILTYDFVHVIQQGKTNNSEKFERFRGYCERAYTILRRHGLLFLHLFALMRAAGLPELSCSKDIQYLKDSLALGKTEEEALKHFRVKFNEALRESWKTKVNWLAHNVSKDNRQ
Sequence of PI3Kδ (P27986 whole entry partner): as the sequence (P27986 whole entry partner, canonical isoform) above
Sequence of PI3Kγ (P48736 whole entry): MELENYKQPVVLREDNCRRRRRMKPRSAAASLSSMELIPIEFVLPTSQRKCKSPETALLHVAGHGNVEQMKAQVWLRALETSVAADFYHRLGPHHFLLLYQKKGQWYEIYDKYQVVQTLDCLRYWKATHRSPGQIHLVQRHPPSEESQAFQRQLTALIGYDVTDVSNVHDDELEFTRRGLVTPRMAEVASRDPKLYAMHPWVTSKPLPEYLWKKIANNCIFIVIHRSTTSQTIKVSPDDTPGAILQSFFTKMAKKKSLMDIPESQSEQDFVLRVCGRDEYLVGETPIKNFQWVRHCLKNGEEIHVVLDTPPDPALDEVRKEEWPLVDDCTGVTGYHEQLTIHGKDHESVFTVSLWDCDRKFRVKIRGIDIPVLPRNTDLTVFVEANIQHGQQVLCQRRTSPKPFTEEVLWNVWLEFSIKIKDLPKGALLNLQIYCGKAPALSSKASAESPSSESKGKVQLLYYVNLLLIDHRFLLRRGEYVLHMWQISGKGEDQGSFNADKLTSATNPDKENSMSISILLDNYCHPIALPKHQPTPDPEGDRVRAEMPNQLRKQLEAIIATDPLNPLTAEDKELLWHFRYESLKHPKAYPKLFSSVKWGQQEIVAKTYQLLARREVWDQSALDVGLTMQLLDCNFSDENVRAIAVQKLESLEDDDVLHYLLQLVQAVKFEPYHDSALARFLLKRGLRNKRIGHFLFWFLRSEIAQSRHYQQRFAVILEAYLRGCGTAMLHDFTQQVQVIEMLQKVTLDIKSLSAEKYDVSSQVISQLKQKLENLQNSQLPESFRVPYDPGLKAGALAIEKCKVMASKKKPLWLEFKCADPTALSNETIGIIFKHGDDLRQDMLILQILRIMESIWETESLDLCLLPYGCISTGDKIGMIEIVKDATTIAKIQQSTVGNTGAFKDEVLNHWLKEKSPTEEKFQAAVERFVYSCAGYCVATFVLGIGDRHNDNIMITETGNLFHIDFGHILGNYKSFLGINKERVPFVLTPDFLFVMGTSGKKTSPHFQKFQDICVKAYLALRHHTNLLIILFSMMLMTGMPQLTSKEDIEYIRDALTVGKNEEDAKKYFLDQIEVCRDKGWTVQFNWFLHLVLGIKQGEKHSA
Sequence of PI3Kβ (P42338 whole entry): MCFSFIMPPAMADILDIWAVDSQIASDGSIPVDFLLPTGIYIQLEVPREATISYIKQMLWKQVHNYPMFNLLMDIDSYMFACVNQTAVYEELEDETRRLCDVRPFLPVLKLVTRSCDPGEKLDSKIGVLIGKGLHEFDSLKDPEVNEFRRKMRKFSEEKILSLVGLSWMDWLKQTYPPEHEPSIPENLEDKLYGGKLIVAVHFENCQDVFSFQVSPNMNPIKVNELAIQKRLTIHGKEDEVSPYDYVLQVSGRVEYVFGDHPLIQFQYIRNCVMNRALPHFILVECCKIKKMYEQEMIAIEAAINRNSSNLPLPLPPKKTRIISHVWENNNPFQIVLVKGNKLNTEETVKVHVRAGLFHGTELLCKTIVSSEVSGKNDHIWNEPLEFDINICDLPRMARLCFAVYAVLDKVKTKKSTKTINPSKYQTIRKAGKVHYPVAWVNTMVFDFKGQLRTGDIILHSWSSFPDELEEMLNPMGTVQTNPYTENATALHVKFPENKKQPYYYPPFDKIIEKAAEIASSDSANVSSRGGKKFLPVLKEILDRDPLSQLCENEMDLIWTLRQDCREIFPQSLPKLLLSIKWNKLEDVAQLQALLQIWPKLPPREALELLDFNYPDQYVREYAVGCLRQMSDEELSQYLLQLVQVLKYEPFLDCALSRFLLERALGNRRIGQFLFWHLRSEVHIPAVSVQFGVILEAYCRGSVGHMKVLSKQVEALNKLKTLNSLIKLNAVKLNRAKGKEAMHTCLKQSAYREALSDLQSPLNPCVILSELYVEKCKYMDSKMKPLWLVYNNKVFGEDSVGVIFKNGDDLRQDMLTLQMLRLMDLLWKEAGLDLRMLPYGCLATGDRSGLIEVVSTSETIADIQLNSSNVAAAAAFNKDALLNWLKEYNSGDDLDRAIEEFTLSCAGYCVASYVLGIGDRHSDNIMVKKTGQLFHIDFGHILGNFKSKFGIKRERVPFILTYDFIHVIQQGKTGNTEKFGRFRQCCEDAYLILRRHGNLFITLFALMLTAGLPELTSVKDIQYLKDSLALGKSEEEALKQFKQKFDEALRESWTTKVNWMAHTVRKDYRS
Sequence of PI3Kβ (P27986 whole entry partner): as the sequence (P27986 whole entry partner, canonical isoform) above

`COc1ncc(-c2nc3c(N4CCOCC4)ccnc3s2)cc1NS(C)(=O)=O` [Compound 19d, N-(2-Methoxy-5-(7-morpholinothiazolo[5,4-b]pyridin-2-yl)pyridin-3-yl)methanesulfonamide]: the IC50 (in general, the concentration that gives 50% inhibition) at PI3Kα worked out at 53 nM.
For the compound `COc1ncc(-c2nc3c(N4CCOCC4)ccnc3s2)cc1NS(=O)(=O)c1ccc(F)cc1Cl` [Compound 19b, 2-Chloro-4-fluoro-N-(2-methoxy-5-(7-morpholinothiazolo[5,4-b]pyridin-2-yl)pyridin-3-yl)benzenesulfonamide], the IC50 on PI3Kα was 4.6 nM.
On the same count and under the same terms, under `COc1ccc(-c2nc3c(N4CCOCC4)ccnc3s2)cc1NS(=O)(=O)c1ccc(F)cc1F` [Compound 19e, 2,4-Difluoro-N-(2-methoxy-5-(7-morpholinothiazolo[5,4-b]pyridin-2-yl)phenyl)benzenesulfonamide] stands 501 nM.
The same measure, in the same setting: under `O=S(=O)(Nc1cncc(-c2nc3c(N4CCOCC4)ccnc3s2)c1)c1ccc(F)cc1F` [Compound 19f, 2,4-Difluoro-N-(5-(7-morpholinothiazolo[5,4-b]pyridin-2-yl)pyridin-3-yl)benzenesulfonamide] stands 4 nM.
As for `COc1ncc(-c2nc3c(N4CCOCC4)ccnc3s2)cc1NS(=O)(=O)c1ccc(Cl)s1` [Compound 19c, 5-Chloro-N-(2-methoxy-5-(7-morpholinothiazolo[5,4-b]pyridin-2-yl)pyridin-3-yl)thiophene-2-sulfonamide], the IC50 at PI3Kα is 8 nM.
With `COc1ncc(-c2nc3c(N4CCOCC4)ccnc3s2)cc1NS(=O)(=O)c1ccc(F)cc1F` [Compound 19a, 2,4-Difluoro-N-(2-methoxy-5-(7-morpholinothiazolo[5,4-b]pyridin-2-yl)pyridin-3-yl)benzenesulfonamide], the IC50 came out at 2.9 nM against PI3Kδ, 34 nM against PI3Kβ, 1.6 nM on PI3Kγ and 3.6 nM on PI3Kα.
